This is an account of results in PubChem BioAssay (NCI).

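The compound was tested at five concentrations on cells cultured in 96-well plates, with a 48-hour exposure period. Abbreviation: GI50, concentration required for 50% inhibition of growth. TGI: concentration producing complete growth inhibition.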

Common to all, as to assay: NCI anticancer screen, dose series, 48 h
The test system of test [1] is NCI-H226 lung.
The subject of test [2] is UO-31 renal.
Test [3] relates to NCI-H522 lung.
In test [4] the test system is A498 renal.
For test [5], the system named is MOLT-4 leukemia.
For test [6], the system named is SN12C renal.
For test [7], the system named is IGROV1 ovarian.
Test [8] deals with MALME-3M melanoma.
In test [9] the test system is PC-3 prostate.
Test [10] has as its system OVCAR-8 ovarian.

With `CC1=C(C(=O)Nc2ccc3[nH]ncc3c2)C(c2ccc(F)cc2)N=C(c2ccc(C(F)(F)F)nc2)N1` (centres undefined), the GI50 in test [1] was 3.99 µM; in test [2] it was 3.35 µM; in [3], 7.06 µM; in [4], 2.23 µM; in test [5], 11.9 µM; in test [6], > 22.9 µM. The GI50 in [7] was 5.66 µM; in [8], > 16.5 µM; in test [9] it was 13.1 µM; in test [10], 20.2 µM. The TGI was > 25 µM in test [1]; 24.4 µM in [2]; > 25 µM in test [3]; 9.32 µM in [4]; > 25 µM in [5]; > 25 µM in test [6]. Besides, the TGI in [7], in test [8], in test [9] and in test [10] was > 25 µM in each case.

For `COc1cc(NC(=O)COc2ccccc2)c(C(N)=O)cc1OC`, the GI50 in [1] is 42.8 µM; in [2], 13.5 µM; in test [3], 0.41 µM; in [4] it was 2.77 µM; in [5], 2.91 µM; in test [6] it was 3.12 µM. The GI50 in test [7] is 4.07 µM; in [8], 4 µM; in test [9] it was 2.23 µM; in [10], 3.01 µM. In addition, the TGI in [1] is > 100 µM; in test [2], > 100 µM; in [3], 7.06 µM; in test [4], 15.4 µM; in test [5], > 100 µM; in test [6], > 100 µM. The TGI in test [7], in test [8], in test [9] and in test [10] was > 100 µM throughout.

Turning to `COc1ccccc1CNCCCN1C(=O)c2ccc3c4c(ccc(c24)C1=O)C(=O)N(CCCNCc1ccccc1OC)C3=O`, the GI50 in test [1] is 0.362 µM; in test [2] it was 0.196 µM; in test [3], 0.145 µM; in test [4], 1.21 µM; in [5], 0.112 µM; in test [6], 0.151 µM. For the same compound, the GI50 in test [7] was 0.148 µM; in [8], 0.155 µM; in test [9] it was 0.214 µM; in test [10], 0.137 µM. The TGI in test [1] was found to be 1.32 µM; in test [2], 0.458 µM; in test [3], 0.307 µM; in [4] it was 2.5 µM; in test [5], 0.455 µM; in test [6] it was 0.305 µM. For the same compound, the TGI in test [7] was 0.399 µM; in test [8], 0.32 µM; in test [9], 0.608 µM; in test [10], 2.26 µM.

On to `CN(c1ccccc1)c1c2ccccc2nc2[nH]c3ccccc3c12`, for which the GI50 is 1.91 µM in test [1]; 1.22 µM in [2]; 3.56 µM in test [3]; 2.04 µM in test [4]; 0.841 µM in test [5]; 1.68 µM in test [6]. Further, the GI50 in [7] is 1.79 µM; in [8], 2.24 µM; in [9] it was 2.78 µM; in test [10], 2.46 µM. The TGI in [1] is 4.44 µM; in test [2], 3.66 µM; in test [3] it was 14.9 µM; in test [4] it was 5.32 µM; in test [5] it was > 29.6 µM; in [6] it was 5.06 µM. For the same compound, the TGI in test [8] was 5.72 µM; in [9] it was 14.7 µM; in test [10] it was > 29.3 µM.

For the compound `CC(=O)O[C@H]([C@H](OC(C)=O)[C@H](C)OC(C)=O)[C@@H](/C=C/[C@H]1CC=CC(=O)O1)OC(C)=O`, the GI50 in [1] was > 100 µM; in test [2], > 100 µM; in test [3], 15.6 µM; in test [4], 41.4 µM; in test [5], 72.7 µM; in test [6], 83.3 µM. Also, the results for the GI50 in [8], in test [9] and in [10] were > 100 µM, 17.6 µM and 51.2 µM, respectively. Further, the TGI in test [1] was > 100 µM; in test [2] it was > 100 µM; in test [3] it was 36.2 µM; in test [4], > 100 µM; in test [5], > 100 µM; in test [6], > 100 µM. The TGI in test [8], in [9] and in test [10] was > 100 µM throughout.

For the compound `O=C(CCN1CCOCC1)Nc1ccc(Cn2nnc3c2C(=O)c2nnn(Cc4ccc(NC(=O)CCN5CCOCC5)cc4)c2C3=O)cc1`, the GI50 in test [1] is > 100 µM; in test [2], > 100 µM; in test [3], 1.63 µM; in [4], > 100 µM; in test [5] it was 0.763 µM; in test [6], 0.52 µM. In addition, the GI50 in test [8] was 0.247 µM; in test [10], > 100 µM. Besides, the TGI was > 100 µM in test [1]; > 100 µM in test [2]; 4.34 µM in [3]; > 100 µM in [4]; 3.48 µM in test [5]; 2 µM in test [6]. The TGI in test [8] was 0.747 µM; in test [9], > 100 µM; in test [10] it was > 100 µM.
